Reference: US7550469B2, “Heterocyclic amide derivatives and their use as dopamine D3 receptor ligands” (Aventis Pharmaceuticals Inc., priority 2001, dated 2009)
Like-named read-outs stand apart in the source and are kept apart here.

Columns and labels:
[1] = target: Alpha-1 adrenergic receptors from rat brain cortex; assay: [3H]Prazosin binding to alpha-1 adrenergic receptors from rat brain cortex (Protocol 4)
Excerpt: [^3H]Prazosin Binding to Alpha-1 Adrenergic Receptors from Rat Brain Cortex
Objective: This in vitro assay is designed as a screen to identify compounds displaying a affinity for the a, adrenoceptor subtype in membranes from rat cortex. It measures the ability of the test compounds to displace [^3H]prazosin from the α1 sites.
Membrane Preparation: Rat brain tissue can be obtained from either fresh (male Wistar rats; 200-250 g) or frozen (male Sprague-Dawley 200-250 g from Harlan; cat. #BT-403) stocks. The cortex is dissected, homogenized in 50 vol (wet weight) ice-cold 50 mM Tris buffer (pH 7.7 at 25° C.). The homogenate is centrifuged at 48,000 g for 10 min, the pellet is resuspended in 50 mM Tris buffer and centrifuged a second time. The second pellet (P2) is resuspended to yield a concentration of 115 mg wet weight per 10 ml. […] Membranes should be mixed just before addition to ensure an even suspension. […] This is diluted to a 0.5 mM stock in dH2O. Serial dilutions in Buffer A are made from which 50 μl additions to the plate are made in duplicate in order to achieve the final concentrations desired. Typically, one 96 well plate is used to evaluate 11 compounds at 4 concentrations (10^−6-10^−9 M) in duplicate. Total binding and nonspecific binding are determined in quadruplicate. Usually one standard is run with each assay. • [^3H]Prazosin is made up in Buffer A such that when 50 μl are added per well the final concentration is […] in a final assay volume of 200 μl. The final concentration should be verified by running a sample in a scintillation counter prior to adding the [^3H]prazosin to the 96 well plate. Note: The radioactivity should be prepared just before the additions are made so that it is not allowed to sit on the bench for very long. • Packard GF/B Plate Pretreatment: The filter plates are presoaked for at least 30 min in ice cold Buffer B containing 0.05% polyethyleneimine (200 μl/200 ml) to maximize filtration efficiency and minimize filter blank binding. • Incubation & Filtration: Once buffer, compounds, [^3H]prazosin and membrane have been added (and mixed), the 96 well plates are incubated for 40 min at 37° C. and spaced 3-5 min apart. At 40 min, the plates are filtered using a Tomtec Automated Cell Harvester. Filtration is immediately followed by washes of ice cold Buffer B (total vol. ˜7 ml). • Drying and Counting: Each filter plate is dried under a heat lamp for 15 min. The back of the plate is sealed and 40 μl of Packard microscint fluid are added per well. Using Packard film, each plate is heat sealed prior to being counted in a Packard Topcount Scintillation counter. A program has been written that counts each plate twice sending DPM, CPM and TSIS data to disk and printer. • Analysis of Results: Raw DPM and CPM data are captured on disk and are imported into one of several software packages (Graphpad Prism Ver 2.0, Excel) residing on the LAN. Specific binding is defined as the difference between total binding and the binding in the presence of 10 μM phentolamine. Total binding is less than 10% of the total added ligand. Software using one-site competition curve analysis is employed in the calculation of IC50 and KI (Cheng-Prusoff equation, 1973). The top and bottom of the non-linear regression are held constant at 0% and 100% inhibition. The percent inhibition at each drug concentration is the mean of duplicate determinations.

[2] = target: T1, cloned human dopamine D3 receptors (Homo sapiens, UniProt P35462); assay: [N-Methyl-3H]Spiroperidol binding to cloned human dopamine D3 receptors (Protocol 1)
T1 construct: expressed in transfected cells; membrane homogenate
Summary of the method: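 Radioligand displacement with [N-methyl-3H]spiroperidol used a physiological-salt Tris buffer (0.05 M, pH 7.7; NaCl 120 mM, KCl 5 mM, CaCl2 2 mM, MgCl2 1 mM) and membranes of a high-expressing stable CHO clone carrying human D3. Total ligand concentration came from measured added CPM; 0.1% ascorbic acid was optional for oxidizable compounds.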

[3] = r = rat, piperazines (n = 1) vs homopiperazines (n = 2), read-out: r-α1 Ki
[4] = rat α-1, read-out: rat alpha 1 Ki
[5] = the 14th table, read-out: D3 Ki
[6] = the 13th table, unit inferred, read-out: D3Ki

T1 sequence (P35462 whole entry): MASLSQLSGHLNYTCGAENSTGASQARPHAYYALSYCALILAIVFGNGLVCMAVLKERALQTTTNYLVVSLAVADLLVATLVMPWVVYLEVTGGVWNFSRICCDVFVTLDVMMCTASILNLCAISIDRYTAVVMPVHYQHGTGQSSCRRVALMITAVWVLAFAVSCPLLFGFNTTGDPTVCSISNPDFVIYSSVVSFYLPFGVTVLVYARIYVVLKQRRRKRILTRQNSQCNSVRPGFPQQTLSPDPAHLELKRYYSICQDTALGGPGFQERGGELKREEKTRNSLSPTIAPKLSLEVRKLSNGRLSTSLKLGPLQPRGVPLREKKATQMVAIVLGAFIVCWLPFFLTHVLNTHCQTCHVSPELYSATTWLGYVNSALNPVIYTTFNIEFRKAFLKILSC

Structure (SMILES) | Ki [1, 3] [nM] | Ki [1, 4] [nM] | other results
COc1cccc(C(=O)NCCCCN2CCN(c3csc4cc(F)ccc34)CC2)c1 [compound 813380] | 21.9 | – | –
O=C(NCCCCN1CCN(c2csc3cc(F)ccc23)CC1)c1ccc(Br)cc1 [compound 813381] | – | 32.3 | –
O=C(NCCCCN1CCN(c2csc3cc(F)ccc23)CC1)c1ccc2[nH]ccc2c1 [compound 814018] | 5 | – | –
O=C(NCCCCN1CCN(c2csc3cc(F)ccc23)CC1)c1ccco1 [compound 813371] | 1.1 | 1.1 | –
O=C(NCCCCN1CCN(c2csc3cc(F)ccc23)CC1)c1ccc(Cl)cc1 [compound 813754] | – | 7 | –
CCCCOc1ccc(C(=O)NCCCCN2CCN(c3csc4cc(F)ccc34)CC2)cc1 [compound 813376] | – | 10.9 | –
O=C(NCCCCN1CCN(c2csc3cc(F)ccc23)CC1)c1ccc(C(F)(F)F)cc1 [compound 813374] | 32.4 | 32.4 | –
O=C(NCCCCN1CCN(c2csc3cc(F)ccc23)CC1)c1ccc(F)cc1F [compound 813920] | – | 2 | –
O=C(NCCCCN1CCN(c2csc3cc(F)ccc23)CC1)c1c[nH]c2ccccc12 [compound 814026] | 12 | – | –
O=C(NCCCCN1CCN(c2csc3cc(F)ccc23)CC1)c1cc2ccccc2[nH]1 [compound 813373] | 25.2 | – | –
COc1ccccc1C(=O)NCCCCN1CCN(c2csc3cc(F)ccc23)CC1 [compound 813368] | 4.1 | 4.1 | –
CCOc1ccc(C(=O)NCCCCN2CCN(c3csc4cc(F)ccc34)CC2)cc1 [compound 813914] | – | 3 | –
O=C(NCCCCN1CCN(c2csc3cc(F)ccc23)CC1)c1ccc2ccccc2c1 [compound 813372] | 40.6 | – | –
O=C(NCCCCN1CCN(c2csc3cc(F)ccc23)CC1)c1c(F)cccc1F [compound 813918] | – | 4 | –
O=C(NCCCCN1CCN(c2csc3cc(F)ccc23)CC1)c1sc2ccccc2c1Cl [compound 813377] | – | 15.4 | –
O=C(NCCCCCN1CCN(c2csc3cc(F)ccc23)CC1)c1ccc2cc[nH]c2c1 [compound 826790] | – | – | Ki [2, 5]: 5.66 nM
COc1cc(OC)cc(C(=O)NCc2ccoc2CN2CCN(c3csc4cc(F)ccc34)CC2)c1 [compound 825837] | – | – | Ki ([2]; the 20th table, read-out: D3 Ki): 190 nM
O=C(Cc1ccccc1)NC[C@@H]1CC1CN1CCCN(c2csc3cc(F)ccc23)CC1 (some centres unmarked) [compound 831203] | – | – | Ki ([2]; the 17th table, read-out: D3 Ki): 3.21 nM
O=C(NCCCCCCN1CCN(c2csc3cc(C(F)(F)F)ccc23)CC1)c1ccc2[nH]ccc2c1 [compound 816316] | – | – | Ki ([2]; Table 2, read-out: D3K1): 2.7 nM; Ki ([2]; read-out: D3K1): 2.7 nM; Ki [2, 5]: 2.7 nM
O=C(NCCCCN1C2CCC1CC(c1noc3cc(F)ccc13)C2)c1cccc2ccccc12 (centres unmarked) [compound 816330] | – | – | Ki ([2]; the 15th table, read-out: D3 Ki): 186 nM
O=C(NCCCCN1CCN(c2csc3cc(F)ccc23)CC1)c1cc2ccccc2s1 [compound 811614] | 5 | 5 | –
O=C(NCCCCN1CCN(c2c(Cl)sc3cc(F)ccc23)CC1)c1ccc([N+](=O)[O-])cc1 [compound 815061] | – | – | Ki ([2]; read-out: D3K1): 3.6 nM
O=C(NCCCCCN1CCN(c2csc3cc(F)ccc23)CC1)c1ccc(OC(F)(F)F)cc1 [compound 826777] | – | – | Ki [2, 5]: 4.56 nM
O=C(NCCCCN1CCN(c2csc3cc(F)ccc23)CC1)c1ccc2c(c1)OCO2 [compound 813375] | – | 2.6 | –
C[C@@H]1CN(c2csc3cc(F)ccc23)C[C@H](C)N1CCCCNC(=O)c1ccc(F)cc1 [compound 826939] | – | – | Ki ([2]; the 21st table, read-out: D3 Ki): 19 nM
O=C(NCCCCN1CCCN(c2csc3cc(C(F)(F)F)ccc23)CC1)c1ccc(F)cc1 [S980637] | – | – | Ki [2, 6]: 43 nM
Cc1nn(-c2ccccc2)nc1C(=O)NCCCCN1CCCN(c2csc3cc(F)ccc23)CC1 [S981833] | – | – | Ki [2, 6]: 9 nM
O=C(NCCCCCN1CCN(c2csc3cc(F)ccc23)CC1)c1cc2ccccc2o1 [compound 826793] | – | – | Ki [2, 5]: 3.7 nM
Cc1oc(-c2ccc(Cl)cc2)cc1C(=O)NCCCCN1CCCN(c2csc3cc(F)ccc23)CC1 [S981840] | – | – | Ki [2, 6]: 3.4 nM
